Measurements: PMC3569154 (Clinical Psychopharmacology and Neuroscience, 2012)

Legend:
[1] = test system: 28-standard receptor-binding profile; conditions: 1µM; cited from earlier work
[2] = target: T1, [^3H]glycine uptake sites (GlyT-1) (Mus musculus, UniProt P28571); experiment: Inhibition of [^3H]glycine uptake in mouse brain homogenates; assay type: biochemical
T1 sequence (P28571 1-692): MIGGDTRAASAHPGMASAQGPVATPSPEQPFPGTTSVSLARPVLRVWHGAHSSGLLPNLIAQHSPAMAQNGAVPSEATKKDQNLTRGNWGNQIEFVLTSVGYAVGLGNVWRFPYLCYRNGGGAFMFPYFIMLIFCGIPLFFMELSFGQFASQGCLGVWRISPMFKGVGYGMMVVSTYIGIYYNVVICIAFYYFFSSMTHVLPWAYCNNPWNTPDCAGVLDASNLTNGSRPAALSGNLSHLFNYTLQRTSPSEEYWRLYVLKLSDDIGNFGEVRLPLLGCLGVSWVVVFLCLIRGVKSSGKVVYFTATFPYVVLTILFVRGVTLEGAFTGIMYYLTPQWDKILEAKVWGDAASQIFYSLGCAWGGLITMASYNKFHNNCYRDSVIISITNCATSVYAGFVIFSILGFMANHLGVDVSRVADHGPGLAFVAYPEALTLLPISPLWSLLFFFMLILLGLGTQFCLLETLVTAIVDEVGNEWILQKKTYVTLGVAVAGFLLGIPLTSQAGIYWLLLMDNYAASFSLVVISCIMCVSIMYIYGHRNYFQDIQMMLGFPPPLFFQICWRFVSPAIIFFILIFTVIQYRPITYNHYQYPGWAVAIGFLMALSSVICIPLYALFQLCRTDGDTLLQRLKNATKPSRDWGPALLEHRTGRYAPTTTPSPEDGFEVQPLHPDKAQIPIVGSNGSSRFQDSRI

IC50 [2]: 2.7 nM
SMILES: CN1CCCC[C@@H]1[C@@H](NC(=O)c1nccc(C(F)(F)F)c1Cl)c1ccsc1 [CHIBA-3007, 3-chloro-N-((S)-((R)-1-methylpiperidin-2-yl)(thiophen-3-yl)methyl)-4-(trifluoromethyl)picolinamide]
inhibition in 28-standard receptor-binding profile [1]: < 50%
